# Measurements: ChEMBL document CHEMBL4406859, “Antitumor and antiviral activities of 4-substituted 1,2,3-triazolyl-2,3-dibenzyl-L-ascorbic acid derivatives” (Eur J Med Chem, 2019)
# Active and inactive are the calls of the source. The rule behind the calls is not given here.
# System: Vaccinia virus
# Assay: Antiviral activity against Vaccinia virus infected in human HELF cells assessed as reduction in virus-induced cytopathogenicity incubated for 7 days by microscopic analysis
# Assay type: functional, organism-based
# Details: Orthopoxvirus vaccinia
row,Compound,Activity
1,COc1ccccc1-c1cn(C/C=C2\OC(=O)C(OCc3ccccc3)=C2OCc2ccccc2)nn1,inactive
2,O=C1O/C(=C\Cn2cc(-c3ccc(Br)cc3)nn2)C(OCc2ccccc2)=C1OCc1ccccc1,inactive
3,COc1ccc(-c2cn(C/C=C3\OC(=O)C(OCc4ccccc4)=C3OCc3ccccc3)nn2)cc1,inactive
4,O=C1O/C(=C\Cn2cc(-c3cc(F)cc(F)c3)nn2)C(OCc2ccccc2)=C1OCc1ccccc1,inactive
5,O=C1O[C@H]([C@@H](O)Cn2cc(C3CC3)nn2)C(OCc2ccccc2)=C1OCc1ccccc1,inactive
6,Cc1ccc(-c2cn(C/C=C3\OC(=O)C(OCc4ccccc4)=C3OCc3ccccc3)nn2)cc1,inactive
7,CC(C)(C)c1cn(C[C@H](O)[C@H]2OC(=O)C(OCc3ccccc3)=C2OCc2ccccc2)nn1,inactive
8,O=C1O/C(=C\Cn2cc(CCO)nn2)C(OCc2ccccc2)=C1OCc1ccccc1,inactive
9,O=C1O/C(=C\Cn2cc(-c3cccc(O)c3)nn2)C(OCc2ccccc2)=C1OCc1ccccc1,inactive
10,C[Si](C)(C)c1cn(C[C@H](O)[C@H]2OC(=O)C(OCc3ccccc3)=C2OCc2ccccc2)nn1,inactive
11,CCCCCCCCCCc1cn(C[C@H](O)[C@H]2OC(=O)C(OCc3ccccc3)=C2OCc2ccccc2)nn1,inactive
12,CC(C)(C)c1cn(C/C=C2\OC(=O)C(OCc3ccccc3)=C2OCc2ccccc2)nn1,inactive
13,CCCCc1cn(C[C@H](O)[C@H]2OC(=O)C(OCc3ccccc3)=C2OCc2ccccc2)nn1,inactive

# Same assay, conditions: Orthopoxvirus vaccinia, 168 h
row,Compound,EC50 [µM]
1,Nc1nc2c(ncn2COCCO)c(=O)[nH]1 [ACYCLOVIR],> 250
2,Nc1nc(O)c2ncn(COC(CO)CO)c2n1 [GANCICLOVIR],> 100
3,CCCCc1cn(C/C=C2\OC(=O)C(OCc3ccccc3)=C2OCc2ccccc2)nn1,> 100
4,O=c1[nH]c(=O)n([C@H]2C[C@H](O)[C@@H](CO)O2)cc1/C=C/Br [BRIVUDINE],85
